One data set relates to Wnt/β-catenin signaling. Put plainly: Wnt3A-stimulated TOPFlash reporter assay. As to conditions: Homo sapiens; HEK293 stably expressing TOPFlash and Renilla luciferase, Wnt3A-conditioned medium, 0.04 to 10 μM, mean±SEM, n=3; read-out: IC50, inhibition of Wnt/β-catenin signaling in TOPFlash assay. The class given is cell-based. As to the method: Wnt-3A conditioned medium was prepared using L WNT-3A cells (ATCC® CRL-2647™) purchased from ATCC, and was obtained using published protocols (http://www.atcc.org/Products/All/CRL-2647.aspx#culturemethod). HEK293 were stably transfected with p8×TOPFlash, Renilla luciferase plasmid pRL-TK, and pLKO.1. Briefly, stably transfected cells were seeded in 100 μL of cell growth medium (MEM, Sigma, catalog number M4655) supplemented with 10% FBS (Atlanta Biologieals, catalog number S11050), and 1 μg/mL puromycin (Sigma, catalog number P8833), 100 U/mL penicillin-streptomycin (Invitrogen, catalog number 15140122)/well in 96-well plates and incubated in 5% CO2 at 37° C. overnight to 100% confluency. Fifty microliters of Wnt-3A conditioned medium containing the chemical compounds to be tested or DMSO was added to each well. After 6 h treatment, the cell were washed once with PBS and lysed with 55 μL of Passive Lysis Buffer supplied in the Dual-Luciferase Reporter Assay kit (Promega, Catalog number E1960). Twenty-five microliters of cell lysate was used for measuring luciferase activity in a […] plate reader (FluoStar Optima, BMG Labtech, Chicago, Ill.).
(In general: A reporter such as luciferase makes a cellular process visible.)

The subject of a further data set is HT-29. Put plainly: Inhibition of cell proliferation by MTS assay, HT-29. The class given is cell-based. The note with it: Homo sapiens; HT-29, MTS assay at 72 hr. The procedure:
Colon cancer cell lines SW948, HT-29, HCT116, CRC240, SW480, and DLD-1 were used in the cell proliferation assay. All cell lines, except CRC240, were from ATCC. CRC240, a colorectal cancer patient derived xenograft (PDX) cell line, was obtained from the Hsu lab (Duke University). Generation of CRC240 cell line was previously reported. SW948 cells were cultured in Leibovitz's medium (Gibco, catalog number 21083-027). HT-29 and HCT116 cells were cultured in McCoy's 5A medium (Gibco, catalog number 16600-082). SW480 cells were cultured in MEM medium. CRC240 and DLD-1 cells were cultured in RPMI medium (Gibco, catalog number 11875-093). All media were supplemented with 10% FBS and 100 U/ml penicillin-streptomycin. […] IC50 values calculated using Graphpad Prism.
A general note: Tetrazolium assays rely on reduction of a dye to a coloured formazan, in cell work by metabolically active cells.

The nature of data set [1]: Pharmacokinetic analysis of DK419 in mouse plasma after oral dose. The class given is in vivo, NOD/SCID mice. The note with it: mice; for Cmax: read-out: Cmax (second line). The procedure:
DK419 was dissolved in 10% N-Methyl pyrrolidinone (Sigma, catalog number 328634) and 90% PEG300 (Sigma, catalog number 20237) at 0.2 mg/mL, and dosed orally to NOD/SCID mice (n=4) at 1 mg/kg. Blood samples (20 μL) were collected serially from tail vein into vials containing 1 μL of 1000 U/mL heparin at the following time-points: pre-dose, 0.25, 0.5, 1, 2, 4, 8, 24, 48, and 72 h after drug administration. After centrifugation at 1300 g for 5 min at room temperature, plasma was separated and stored at −80° C. until the analysis.
Quantification of DK419 in mouse plasma was started by vigorous agitation of 4 μL sample, 10 μL of 20 ng/mL DK4-106-3 (in-house made internal standard analog), 20 μL of water, and 100 μL of ethyl-acetate. After centrifugation at 16,000 g for 5 min at room temperature, 80 μL of organic (upper) layer was dried under nitrogen stream, residue reconstituted with a mixture of 50% mobile phase A (10 mM ammonium acetate, 0.1% formic acid) and 50% mobile phase B (methanol), and 5 μL injected into LC/MS/MS system. Analysis was performed on Shimadzu series 20A LC/Applied Biosystems/SCIEX API 4000 QTrap MS/MS instrument. Column: Agilent Eclipse 4.6×50 ram, 1.8 μm at 50° C. Elution gradient: 0-2 min 50-90% B, 2-2.5 min 90% B, 2.5-2.7 min, 90-50% B; flow […]. MS/MS transitions followed: 405.8/218.9 (DK419) and 331.8/311.8 (DK4-106-3; int. std.). Run time: 5 min. Calibration samples were prepared by adding pure DK419 to pooled mouse plasma in 2.4 ng/mL (LLOQ)-1000 ng/mL range and analyzed alongside the PK study samples. The calibration curve was linear (r=0.999).

Another data set concerns CRC240 PDX tumors. Put plainly: CRC240 PDX xenograft tumor study. The class given is in vivo, NOD/SCID mice. The note with it: 11 days. As to the method:
The development of CRC240 PDX was previously reported (Lu et al. PLoS One 2017, 12, e0169439). Briefly, CRC240 PDX tissue were wash in PBS and then minced in PBS at 150 mg/mL. 200 μL of the PDX tissue suspension were implanted into the flanks of NOD/SCID mice. When PDX tumor volume reached about 100 mm^3, mice were randomized and were orally dosed for 11 days daily byniclosamide, DK419, or the vehicle control (10% 1-methyl-2-pyrrolidmone and 90% PEG300). […] DK419 was dissolved in the vehicle at 0.2 mg/ml and dosed at 1 mg/kg. Tumor size and body weight were measured at day 0, 4, 8, and 11. The day after the last dose, animals were euthanized and tumor samples were collected and processed for Western blot analysis. Briefly, tumor samples were lysed in RIPA Buffer (Thermofisher Scientific, catalog number 89900). Sample lysates were subjected to Western blot using antibodies to Survivin, c-Myc, and Axin2 as described above. β-actin was used as a loading control.

The conditions of data set [2]: niclosamide 200 mg/kg oral, mice, non-compartmental, cited from earlier work.
In another data set the test system is HCT116 cells. As to conditions: 0.5 and 1.5 μM; cited from earlier work.
The mark [3] stands for this setting: DK419 1 mg/kg oral, compartmental.
Where [4] appears, read: DK419 1 mg/kg oral, non-compartmental.

Like-named read-outs stand apart in the source and are kept apart here.

Turning to `O=C(Nc1ccc(C(F)(F)F)cc1)c1cc(Cl)cc2nc(C(F)(F)F)[nH]c12` [DK419, 6-chloro-2-(trifluoromethyl)-N-(4-(trifluoromethyl)phenyl)-1H-benzo[d]imidazole-4-carboxamide], the IC50 with Wnt/β-catenin signaling was 190 ± 80 nM. This compound also came in with an IC50 with HT-29 of 110 nM. In addition, in data set [1] (setting [3]), the AUCinf was 16300 ng·h/mL (per kg BW), the AUCinf/DOSE is 16.3 µg·h/mL (per mg), the t1/2-absorption turned out to be 2.0 h and the t1/2-elimination came to 10.8 h. Moreover, the Cmax (usually the peak of the concentration-time curve) in data set [1] (setting [3]) amounted to 1790 nM. Also, the Tmax – broadly, the time from dosing to the highest level – in data set [1] (DK419 1 mg/kg oral, compartmental, 1st order extrav. input, 1st order elimination) is 5.85 h. In addition, in data set [1] (setting [4]), the AUCinf was 16900 ng·h/mL (per kg BW); the AUCinf/DOSE was 16.9 µg·h/mL (per mg); the CL/F is recorded as 0.06 L/h (per kg BW); the MRT (as a rule, a mean duration of stay, worked out from the concentration-time curve) came to 15.8 h. In addition, in data set [1] (setting [4]), the t1/2-elimination was found to be 9.2 h and the Cmax came out at 1840 nM. The Tmax in data set [1] (DK419 1 mg/kg oral, non-compartmental extravascular input) was determined as 4.5 h. In addition, in data set [1] (DK419 1 mg/kg oral, non-compartmental, 0-72 h), the AUC0-LAST was 16800 ng·h/mL (per kg BW). Besides, the CL/F in data set [1] (NOD/SCID, mouse, plasma, DK419 1 mg/kg oral, compartmental, read-out: CL/F (converted)) is 1 mL/min/kg. The “time for which plasma levels were sustained” value in data set [1] (single 1 mg/kg oral dose) was “more than 24 hours”. In data set [1] (single 1 mg/kg oral dose, 24 hours), the “plasma concentration at 24 hours relative to its IC50 in the TOPFlash and MTS assays” value stood at 3 fold. In the data set with CRC240 PDX tumors (1 mg/kg (2.4 μmol/kg) oral once a day, vs vehicle), the “growth of CRC240 PDX tumors (tumor volume)” value is reported as “inhibited the growth of CRC240 PDX tumors compared to vehicle control”. Further, in the data set with CRC240 PDX tumors (1 mg/kg oral once a day), the body weight result was “Neither DK419 nor niclosamide produced a change in body weight”. Besides, the “levels of Wnt/β-catenin target genes (Axin2, Survivin, c-Myc) in tumors, Western blot” value with CRC240 PDX tumors (1 mg/kg oral once a day, tumors collected day after last dose, vs vehicle) is “reduced significantly”.
Regarding `O=C(Nc1ccc([N+](=O)[O-])cc1Cl)c1cc(Cl)ccc1O` [Niclosamide, reference compound], the IC50 in the data set with Wnt/β-catenin signaling was 450 ± 140 nM. In addition, the IC50 with HT-29 came to 100 nM. Also, in the data set with CRC240 PDX tumors (72 mg/kg (220 μmol/kg) oral once a day, vs vehicle), the “growth of CRC240 PDX tumors (tumor volume)” value is on record as “inhibited tumor growth”. Besides, in the data set on CRC240 PDX tumors (72 mg/kg oral once a day), the body weight result is recorded as “Neither DK419 nor niclosamide produced a change in body weight”. Also, the AUC0-LAST in data set [2] (0-24 h) is 1010 ng·h/mL (per kg BW). For the same compound, in data set [2], the AUCinf was 1020 ng·h/mL (per kg BW) and the MRT is given as 6.8 h. The Cmax in data set [2] (read-out: Cmax (second line)) is 2730 nM. In addition, the “oxygen consumption rate in HCT116 cells” value in the data set with HCT116 cells was “caused oxygen consumption rate to increase”.

The values above are taken from patent US11987579B2 (Duke University, priority 2018, dated 2024).
